Measurements from article PMC8448162, “Single- and Multiple-Ascending-Dose Study of the Safety, Tolerability, and Pharmacokinetics of the Polymyxin Derivative SPR206” (Antimicrobial Agents and Chemotherapy, 2021).
Positions of bridges follow the written chain, without caps; N, C: chain ends. Non-standard residues stand in square brackets, D forms with d. Residues, ends and D or L forms follow the SMILES beside them. *: point of attachment. X1 = NC[C@@H](CC(=O)*)c1cccc(Cl)c1; Dab = NCC[C@H](N)C(=O)O; Dap = NC[C@H](N)C(=O)O

Experiment: clinical
Parameters: species or system human
Details: in vivo; for AUC(0-inf): AUC0–inf; for clearance: CL; for Vd: Vz
Protocol: This was a single-center, phase 1, randomized, double-blind, placebo-controlled, first-in-human study to assess the safety, tolerability, and PK of SPR206 following SAD and MAD administrations (Fig. 7). In the SAD phase, subjects received a single i.v. dose of SPR206, and in the MAD phase, subjects received i.v. doses of SPR206 every 8 h (q8h) over a period of 7 to 14 days. SPR206 was administered as a 1 h i.v. infusion.
Maximum plasma concentration (Cmax), area under the concentration-time curve from time zero to last measurable time point (AUC0–t), area under the concentration-time curve from time zero to infinity (AUC0–inf), area under the concentration-time curve from time zero to tau (AUC0–tau), time to maximum concentration (Tmax), terminal elimination rate constant (kel), terminal half-life (t1/2), terminal clearance (CL), and volume of distribution (Vz) were determined. In addition, area under the concentration-time curve from 0 to 24 h after the start of infusion (AUC0–24) was determined for the SAD phase, and area under the concentration-time curve from time zero to 8 h from start of infusion (AUC0–8) on day 1 and 0 to 48 h (AUC0–48) following the last dose on day 14 as well as predose trough concentrations were determined for the MAD phase. Urine parameters included cumulative amount of drug excreted in successive urine intervals (Ae), renal clearance (CLR), fraction of cumulative fraction of dose recovered in urine as unchanged drug (Fe), and percentage fraction of cumulative fraction of dose recovered in urine as unchanged drug (Fe%). PK parameters were determined by noncompartmental analysis using Phoenix WinNonlin 8.1.
For the SAD phase, blood samples were obtained predose and at 30, 60, 75, 90, 105, 120, and 150 min and at 3, 5, 8, 12, and 24 h following the start of infusion. Urine was collected for PK assessment predose and over the intervals of 0 to 4 h, 4 to 8 h, 8 to 12 h, and 12 to 24 h after the start of infusion.
In the MAD phase, plasma samples for PK analysis were collected (i) on day 1—pre-dose and at 30, 60, 75, 90, 105, 120, and 150 min and at 3, 5, and 8 h following start of the first infusion; (ii) prior to the morning dose (within 10 min) on days 2, 3, 5, 7, 9, 11, and 13; and (iii) predose and 30, 75, 90, 105, 120, and 150 min and 3, 5, 8, and 12 h (day 14), 24, 36 (day 15), and 48 h (day 16) following start of the last infusion. Urine was collected for PK assessment on day 1 predose, over the intervals 0 to 4 h and 4 to 8 h after start of first infusion, and on days 14 and 15 over the intervals 0 to 4 h, 4 to 8 h, 8 to 12 h, and 12 to 24 h after start of day 14 infusion. Total 24-h urine for calculating CrCl was collected from the morning of day −1 to predose on day 1 and on days 15 and 16 over the interval from 24 to 48 h after the start of the day 14 infusion. Urine creatinine concentrations were measured using 24-h collections prior to the first dose on day 1 and over the 24 to 48 h following start of infusion of the last dose (day 14). Plasma and urine samples for SPR206 levels were analyzed using a validated liquid chromatography-tandem mass spectrometry (LC-MS/MS) method. The assay range for SPR206 was 50 to 5,000 ng/ml in plasma and 100 to 50,000 ng/ml in urine. In plasma, assay precision was 1.3 to 7.7%, accuracy was 1.2 to 9.5%, stability was 194 h at 4°C, and reproducibility was 98.4%. In urine, assay precision was 1.7 to 7.5%, accuracy was −4.8 to 7.3%, stability was 147 h at 4°C, and reproducibility was 97.8%.
Plasma and urine concentrations and PK parameters for SPR206 were summarized for each treatment using descriptive statistics. In the SAD/MAD study, geometric means were calculated for AUC and Cmax. Analyses using linear models were performed to assess dose proportionality (both single dose and multiple dose), time dependence, accumulation, and attainment of steady state after multiple doses. […]

With CC(C)C[C@@H]1NC(=O)[C@@H](Cc2ccccc2)NC(=O)[C@H](CCN)NC(=O)[C@@H](NC(=O)[C@H](CN)NC(=O)[C@@H](NC(=O)C[C@H](CN)c2cccc(Cl)c2)[C@@H](C)O)CCNC(=O)[C@H]([C@@H](C)O)NC(=O)[C@H](CCN)NC(=O)[C@H](CCN)NC1=O [SPR206] (X1-T[Dap][Dab][Dab][dF]L[Dab][Dab]T; lactam 3-C (inferred)) the Tmax (human) was 1.1 to 1.3 h, the “accumulation ratio for AUC0–inf” value (human) was 1.3-1.8 and the “accumulation ratio for Cmax” value (human) was 1.1-1.3. For the same compound, the “geometric CV for AUC0-inf” value (human) was 6.9-17.4%, the “AUC0–8” value (human, 25 mg) was 4,391 ± 740 h · ng/ml and the “AUC0–inf” value (human, 25 mg) was 5,197 ± 945 h · ng/ml. The AUC%ext (human, 25 mg) was 10.0 ± 4.5 ng·h/mL, the CL (human, 25 mg) was 4.9 ± 0.9 L/h and the Cmax (human, 25 mg) was 1,410 ± 241 ng/ml. The Vz (human, 25 mg) was 21.3 ± 3.6 L, the half-life (human, 25 mg) was 2.7 ± 0.2 h and the AUC(0-t) (human, 25 mg, AUC0–8) was 5880 ng·h/mL. The AUC(0-t) (human, 25 mg, AUC0–48) was 7680 ng·h/mL, the AUC(0-inf) (human, 25 mg) was 7690 ng·h/mL and the clearance (human, 25 mg) was 73.3 mL/min. The Cmax (human, 25 mg, Cmax) was 1610 ng/mL, the half-life (human, 25 mg, Half-life) was 4 ± 0.6 h and the Vd (human, 25 mg) was 18.9 ± 2.6 L. The “AUC0–8” value (human, 50 mg) was 7,955 ± 951 h · ng/ml, the “AUC0–inf” value (human, 50 mg) was 9,243 ± 1,417 h · ng/ml and the CL (human, 50 mg) was 5.5 ± 0.8 L/h. The Cmax (human, 50 mg) was 2,525 ± 413 ng/ml, the half-life (human, 50 mg) was 2.7 ± 0.3 h and the AUC(0-t) (human, 50 mg, AUC0–8) was 10000 ng·h/mL. It also gave an AUC(0-t) (human, 50 mg, AUC0–48) of 12400 ng·h/mL, an AUC(0-inf) (human, 50 mg) of 12400 ng·h/mL and a clearance (human, 50 mg) of 83.3 mL/min. For the same compound, the Cmax (human, 50 mg, Cmax) was 2900 ng/mL, the half-life (human, 50 mg, Half-life) was 3.5 ± 0.9 h and the Vd (human, 50 mg) was 21.5 ± 1.8 L. The “AUC0–48” value (human, 100 mg) was 29,828 ± 5,112 h · ng/ml, the AUC(0-t) (human, 100 mg, AUC0–8) was 21300 ng·h/mL and the AUC(0-t) (human, 100 mg, AUC0–48) was 27500 ng·h/mL. It also gave an AUC(0-inf) (human, 100 mg) of 27700 ng·h/mL, a clearance (human, 100 mg) of 80 mL/min and a Cmax (human, 100 mg, Cmax) of 6340 ng/mL. The Vd (human, 100 mg) was 20.8 ± 2.9 L, the “AUC0–8” value (human, 150 mg) was 27,492 ± 3,452 h · ng/ml and the “AUC0–inf” value (human, 150 mg) was 30,981 ± 4,189 h · ng/ml. The CL (human, 150 mg) was 4.9 ± 0.6 L/h, the Cmax (human, 150 mg) was 8,990 ± 1,056 ng/ml and the Vz (human, 150 mg) was 19.6 ± 3.2 L. The “higher plasma AUC0–8 and Cmax relative to the mean values for the cohort” value (human, 150 mg) was “approximately 23%”, the AUC(0-t) (human, 150 mg, AUC0–8) was 41500 ng·h/mL and the AUC(0-t) (human, 150 mg, AUC0–48) was 55500 ng·h/mL. For the same compound, the AUC(0-inf) (human, 150 mg) was 56000 ng·h/mL, the clearance (human, 150 mg) was 61.7 mL/min and the Cmax (human, 150 mg, Cmax) was 11500 ng/mL. For the same compound, the Vd (human, 150 mg) was 17.1 ± 2.1 L, the half-life (human, half-life) was 2.4 to 4.1 h and the Tmax (human, iv, 10 mg) was 1 h. For the same compound, the AUC(0-t) (human, iv, 10 mg, AUC0–8) was 1560 ng·h/mL, the AUC(0-inf) (human, iv, 10 mg) was 1810 ng·h/mL and the clearance (human, iv, 10 mg) was 93.3 mL/min. The Cmax (human, iv, 10 mg, Cmax) was 495 ± 46.5 ng/mL, the half-life (human, iv, 10 mg, Half-life) was 2.6 ± 0.1 h and the Vd (human, iv, 10 mg) was 21 ± 3.4 L. The Tmax (human, iv, 25 mg) was 1 h, the AUC(0-t) (human, iv, 25 mg, AUC0–8) was 3810 ng·h/mL and the AUC(0-inf) (human, iv, 25 mg) was 4440 ng·h/mL. The clearance (human, iv, 25 mg) was 96.7 mL/min, the Cmax (human, iv, 25 mg, Cmax) was 1290 ng/mL and the half-life (human, iv, 25 mg, Half-life) was 2.8 ± 0.2 h. The Vd (human, iv, 25 mg) was 23.5 ± 4.3 L, the Tmax (human, iv, 50 mg) was 1 h and the AUC(0-t) (human, iv, 50 mg, AUC0–8) was 9380 ng·h/mL. The AUC(0-inf) (human, iv, 50 mg) was 10700 ng·h/mL, the clearance (human, iv, 50 mg) was 78.3 mL/min and the Cmax (human, iv, 50 mg, Cmax) was 3420 ng/mL. It also gave a half-life (human, iv, 50 mg, Half-life) of 2.6 ± 0.3 h, a Vd (human, iv, 50 mg) of 17.8 ± 2.9 L and a Tmax (human, iv, 100 mg) of 1.1 h. For the same compound, the AUC(0-t) (human, iv, 100 mg, AUC0–8) was 17300 ng·h/mL, the AUC(0-inf) (human, iv, 100 mg) was 20400 ng·h/mL and the clearance (human, iv, 100 mg) was 83.3 mL/min. For the same compound, the Cmax (human, iv, 100 mg, Cmax) was 5330 ng/mL, the half-life (human, iv, 100 mg, Half-life) was 3 ± 0.3 h and the Vd (human, iv, 100 mg) was 21.4 ± 2.8 L. For the same compound, the Tmax (human, iv, 200 mg) was 1.1 h, the AUC(0-t) (human, iv, 200 mg, AUC0–8) was 34500 ng·h/mL and the AUC(0-inf) (human, iv, 200 mg) was 40900 ng·h/mL. For the same compound, the clearance (human, iv, 200 mg) was 81.7 mL/min, the Cmax (human, iv, 200 mg, Cmax) was 11300 ng/mL and the half-life (human, iv, 200 mg, Half-life) was 3.4 ± 0.7 h. For the same compound, the Vd (human, iv, 200 mg) was 24 ± 3.1 L, the Tmax (human, iv, 300 mg) was 1.1 h and the AUC(0-t) (human, iv, 300 mg, AUC0–8) was 57700 ng·h/mL. It also gave an AUC(0-inf) (human, iv, 300 mg) of 71000 ng·h/mL, a clearance (human, iv, 300 mg) of 70 mL/min and a Cmax (human, iv, 300 mg, Cmax) of 18200 ng/mL. For the same compound, the half-life (human, iv, 300 mg, Half-life) was 4.1 ± 0.4 h, the Vd (human, iv, 300 mg) was 25.4 ± 3.3 L and the Tmax (human, iv, 400 mg) was 1.1 h. It also gave an AUC(0-t) (human, iv, 400 mg, AUC0–8) of 89300 ng·h/mL, a clearance (human, iv, 400 mg) of 61.7 mL/min and a Cmax (human, iv, 400 mg, Cmax) of 25400 ng/mL. The half-life (human, iv, 400 mg, Half-life) was 3.7 ± 0.5 h, the Vd (human, iv, 400 mg) was 19.4 ± 3.2 L and the “dose proportionality estimate (90% CI) for AUC0–inf” value was 1.11 (1.07, 1.14). The “dose proportionality estimate (90% CI) for AUC0–last” value was 1.14 (1.11, 1.18), the “dose proportionality estimate (90% CI) for Cmax” value was 1.05 (1.02, 1.08) and the “estimate of the exponent from the power model (90% CI) for AUC0–inf” value was 1.03 (0.94, 1.12). The “estimate of the exponent from the power model (90% CI) for AUC0–last” value was 1.07 (0.98, 1.16), the “estimate of the exponent from the power model (90% CI) for Cmax” value was 1.03 (0.96, 1.10) and the “intersubject variability in exposure” value was 10-25%. For the same compound, the “steady state achieved (based on Ctrough)” value was at most 2 days.
